Columns and labels:
Type in all cases: biochemical
HIPK2 [1] = molecular target: T1, HIPK2 (Homo sapiens, UniProt Q9H2X6); test: ADP-Glo kinase assay (positive control drug); conditions: read-out: IC50 ± SEM (μM) / HIPK2
HIPK3 = HIPK3 (Homo sapiens, UniProt Q9H422); test: kinase inhibition assay, percent inhibition at […]
HIPK2 [2] = molecular target: T1, HIPK2; test: ADP-Glo kinase assay (MBP substrate); conditions: read-out: IC50 ± SEM (μM) / HIPK2

T1 sequence (Q9H2X6 whole entry): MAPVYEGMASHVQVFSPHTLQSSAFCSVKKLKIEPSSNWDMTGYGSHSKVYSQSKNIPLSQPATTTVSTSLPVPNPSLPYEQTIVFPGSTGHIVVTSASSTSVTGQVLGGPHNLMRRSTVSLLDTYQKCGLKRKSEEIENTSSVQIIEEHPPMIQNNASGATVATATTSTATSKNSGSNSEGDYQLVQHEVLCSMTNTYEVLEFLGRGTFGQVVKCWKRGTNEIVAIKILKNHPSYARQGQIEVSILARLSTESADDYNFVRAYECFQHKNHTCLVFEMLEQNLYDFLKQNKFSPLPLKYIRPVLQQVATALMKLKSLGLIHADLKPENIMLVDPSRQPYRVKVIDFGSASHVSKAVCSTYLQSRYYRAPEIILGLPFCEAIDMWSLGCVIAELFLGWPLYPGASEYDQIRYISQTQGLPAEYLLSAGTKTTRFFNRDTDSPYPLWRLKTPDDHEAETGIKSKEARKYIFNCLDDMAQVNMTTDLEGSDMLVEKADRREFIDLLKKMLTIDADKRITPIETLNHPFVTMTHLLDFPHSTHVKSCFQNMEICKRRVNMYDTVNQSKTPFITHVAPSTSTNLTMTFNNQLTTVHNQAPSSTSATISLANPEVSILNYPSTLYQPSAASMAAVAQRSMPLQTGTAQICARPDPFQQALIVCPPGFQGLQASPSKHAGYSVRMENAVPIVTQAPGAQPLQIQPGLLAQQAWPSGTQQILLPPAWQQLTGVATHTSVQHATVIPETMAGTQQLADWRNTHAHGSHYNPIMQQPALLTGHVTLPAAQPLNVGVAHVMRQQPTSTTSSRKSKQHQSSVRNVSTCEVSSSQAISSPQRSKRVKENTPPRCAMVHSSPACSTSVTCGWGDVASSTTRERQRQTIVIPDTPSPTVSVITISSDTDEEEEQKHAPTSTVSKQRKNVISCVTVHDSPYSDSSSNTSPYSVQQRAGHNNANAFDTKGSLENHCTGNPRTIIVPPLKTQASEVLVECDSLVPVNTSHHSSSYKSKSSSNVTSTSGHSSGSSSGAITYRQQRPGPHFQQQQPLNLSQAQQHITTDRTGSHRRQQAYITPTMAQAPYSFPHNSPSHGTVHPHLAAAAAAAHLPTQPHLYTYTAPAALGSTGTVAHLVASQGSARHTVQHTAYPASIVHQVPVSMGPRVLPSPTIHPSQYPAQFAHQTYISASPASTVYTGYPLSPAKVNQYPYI
Chain of HIPK3 (Q9H422 whole entry): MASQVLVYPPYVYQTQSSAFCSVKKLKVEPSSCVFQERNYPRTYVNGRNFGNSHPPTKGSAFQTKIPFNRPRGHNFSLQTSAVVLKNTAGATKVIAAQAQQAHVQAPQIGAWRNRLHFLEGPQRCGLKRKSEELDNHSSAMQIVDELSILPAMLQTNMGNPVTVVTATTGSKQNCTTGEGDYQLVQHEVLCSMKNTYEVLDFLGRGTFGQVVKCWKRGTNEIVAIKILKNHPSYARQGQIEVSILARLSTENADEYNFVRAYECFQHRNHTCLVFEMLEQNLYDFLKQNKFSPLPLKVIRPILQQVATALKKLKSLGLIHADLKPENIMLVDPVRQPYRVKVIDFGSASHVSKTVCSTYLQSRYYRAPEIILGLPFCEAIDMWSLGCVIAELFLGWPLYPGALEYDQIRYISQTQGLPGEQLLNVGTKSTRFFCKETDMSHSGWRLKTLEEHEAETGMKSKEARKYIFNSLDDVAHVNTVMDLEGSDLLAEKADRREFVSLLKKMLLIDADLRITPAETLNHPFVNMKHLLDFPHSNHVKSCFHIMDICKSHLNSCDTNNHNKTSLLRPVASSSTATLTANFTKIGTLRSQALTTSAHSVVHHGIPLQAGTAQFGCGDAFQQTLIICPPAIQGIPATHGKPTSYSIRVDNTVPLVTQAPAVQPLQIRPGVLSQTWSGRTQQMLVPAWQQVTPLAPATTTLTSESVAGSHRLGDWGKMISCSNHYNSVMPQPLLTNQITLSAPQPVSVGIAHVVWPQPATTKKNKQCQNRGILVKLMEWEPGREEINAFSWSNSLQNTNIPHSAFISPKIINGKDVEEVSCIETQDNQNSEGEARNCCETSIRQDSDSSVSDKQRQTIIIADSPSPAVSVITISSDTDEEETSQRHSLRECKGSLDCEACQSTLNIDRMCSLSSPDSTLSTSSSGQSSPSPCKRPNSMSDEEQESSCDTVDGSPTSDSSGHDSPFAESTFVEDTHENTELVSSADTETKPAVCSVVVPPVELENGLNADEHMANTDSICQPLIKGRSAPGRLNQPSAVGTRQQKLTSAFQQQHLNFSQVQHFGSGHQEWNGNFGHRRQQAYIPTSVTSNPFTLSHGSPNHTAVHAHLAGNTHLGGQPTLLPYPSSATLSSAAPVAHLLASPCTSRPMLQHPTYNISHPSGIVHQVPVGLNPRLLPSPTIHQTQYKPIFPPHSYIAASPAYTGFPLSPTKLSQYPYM

IC50 (HIPK2 [1]) | inhibition at 10 µM (HIPK3) | Compound | IC50 (HIPK2 [2])
0.45 ± 0.12 µM | > 90% | CCN1CCN(Cc2ccc(Nc3ncc(F)c(-c4cc(F)c5nc(C)n(C(C)C)c5c4)n3)nc2)CC1 [Abemaciclib] | 
 |  | CCCNc1ccc2ncc(-c3ccc4[nH]ncc4c3)n2n1 [T9521, 3-(1H-indazol-5-yl)-N-propylimidazo[1,2-b]pyridazin-6-amine] | 0.97 ± 0.04 µM
 |  | O=C1Nc2ccc3ncsc3c2/C1=C/c1c[nH]cn1 [T16550] | 3.58 ± 0.06 µM

Source: paper PMC11597050, “Virtual Screening, Molecular Dynamics, and Mechanism Study of Homeodomain-Interacting Protein Kinase 2 Inhibitor in Renal Fibroblasts” (Pharmaceuticals, 2024)
